Series [1] relates to recombinant NL4-3 virus (Renilla luciferase in nef). The series can be described thus: HIV cell culture assay (antiviral activity, luciferase readout in MT-2 cells). Format: cell-based. Conditions: Renilla, NL43. Here is the method: HIV cell culture assay—MT=2 cells, 293T cells and the proviral DNA clone of NL4-3 virus were obtained from the NIH AIDS Research and Reference Reagent Program. MT=2 cells were propagated in RPMI 1640 media supplemented with 10% heat inactivated fetal bovine serum (FBS), […] penicillin G and up to 100 units/mL streptomycin. The 293T cells were propagated in DMEM media supplemented with 10% heat inactivated FBS, […] penicillin G and […] streptomycin. A recombinant NL4-3 proviral clone, in which a section of the nef gene was replaced with the Renilla luciferase gene, was used to make the reference virus used in these studies. The recombinant virus was prepared through transfection of the recombinant NL4-3 proviral clone into 293T cells using Transit-293 Transfection Reagent from Mirus Bio LLC (Madison, Wis.). Supernatent was harvested after 2-3 days and the amount of virus present was titered in MT=2 cells using luciferase enzyme activity as a marker by measuring luciferase enzyme activity. Luciferase was quantitated using the EnduRen Live Cell Substrate from Promega (Madison, Wis.). Antiviral activities of compounds toward the recombinant virus were quantified by measuring luciferase activity in MT=2 cells infected for 4-5 days with the recombinant virus in the presence of serial dilutions of the compound.
The 50% effective concentration (EC50) was calculated by using the exponential form of the median effect equation where (Fa)=1/[1+(ED50/drug conc.)m] (Johnson V A, Byington R T. Infectivity Assay. In Techniques in HIV Research. ed. Aldovini A, Walker B D. 71-76. New York: Stockton Press. 1990). The 50% inhibitory concentration (EC50) was calculated by using the exponential form of the median effect equation where percent inhibition=1/[1+(EC50/drug concentration)m], where m is a parameter that reflects the slope of the concentration-response curve.

The nature of series [2]: Compound cytotoxicity, XTT-based colorimetric assay. Format: cell-based. Conditions: human; uninfected MT2 cells, day 4, XTT. Here is the method: Compound cytotoxicity and the corresponding CC50 values were determined using the same protocol as described in the antiviral assay except that uninfected cells were used. Cytotoxicity was assessed on day 4 in uninfected MT2 cells by using an XTT (2,3-bis[2-Methoxy-4-nitro-5-sulfophenyl]-2H-tetrazolium-5-carboxyanilide inner salt)-based colorimetric assay (Sigma-Aldrich, St Louis, Mo.).
A general note: Tetrazolium assays rely on reduction of a dye to a coloured formazan, in cell work by metabolically active cells.

Broadly, the EC50 is the concentration giving half of the maximal effect. For orientation: CC50 means the concentration giving 50% cytotoxicity.

Consider `Cn1nc(NS(C)(=O)=O)c2c(Cl)ccc(-n3c([C@H](Cc4cc(F)cc(F)c4)NC(=O)Cn4nc(C(F)F)c5c4C(F)(F)[C@@H]4C[C@H]54)nc4cc(-c5ncc(Cl)cc5F)ccc4c3=O)c21` (atropisomer, axis not shown; (P)) [Example 8, N—((S)-1-((3P)-3-(4-chloro-1-methyl-3-(methylsulfonamido)-1H-indazol-7-yl)-7-(5-chloro-3-fluoropyridin-2-yl)-4-oxo-3,4-dihydroquinazolin-2-yl)-2-(3,5-difluorophenyl)ethyl)-2-((3bS,4aR)-3-(difluoromethyl)-5,5-difluoro-3b,4,4a,5-tetrahydro-1H-cyclopropa[3,4]cyclopenta[1,2-c]pyrazol-1-yl)acetamide], for which the EC50 in series [1] was 0.3 nM. Further, the cytotoxic concentration (CC50) at 4 days in series [2] was > 500 nM.
Take `Cn1nc(NS(C)(=O)=O)c2c(Cl)ccc(-n3c([C@H](Cc4cc(F)cc(F)c4)NC(=O)Cn4nc(C(F)F)c5c4C(F)(F)[C@@H]4C[C@H]54)nc4cc(-c5ccn(CCOC(F)(F)F)n5)ccc4c3=O)c21` (atropisomer, axis not shown; (P)) [Example 54, N—((S)-1-((3P)-3-(4-chloro-1-methyl-3-(methylsulfonamido)-1H-indazol-7-yl)-4-oxo-7-(1-(2-(trifluoromethoxy)ethyl)-1H-pyrazol-3-yl)-3,4-dihydroquinazolin-2-yl)-2-(3,5-difluorophenyl)ethyl)-2-((3bS,4aR)-3-(difluoromethyl)-5,5-difluoro-3b,4,4a,5-tetrahydro-1H-cyclopropa[3,4]cyclopenta[1,2-c]pyrazol-1-yl)acetamide]: in series [1], the EC50 worked out at 0.098 nM. In addition, the CC50 at 4 days in series [2] was > 100 nM.
Consider `CS(=O)(=O)Nc1nn(CCCF)c2c(-n3c([C@H](Cc4cc(F)cc(F)c4)NC(=O)Cn4nc(C(F)F)c5c4C(F)(F)[C@@H]4C[C@H]54)nc4cc(-c5ccn(CC(F)(F)C(F)F)n5)ccc4c3=O)ccc(Cl)c12` [Example 67, N—((S)-1-((3P)-3-(4-chloro-1-(3-fluoropropyl)-3-(methylsulfonamido)-1H-indazol-7-yl)-4-oxo-7-(1-(2,2,3,3-tetrafluoropropyl)-1H-pyrazol-3-yl)-3,4-dihydroquinazolin-2-yl)-2-(3,5-difluorophenyl)ethyl)-2-((3bS,4aR)-3-(difluoromethyl)-5,5-difluoro-3b,4,4a,5-tetrahydro-1H-cyclopropa[3,4]cyclopenta[1,2-c]pyrazol-1-yl)acetamide], for which the EC50 in series [1] amounted to 0.049 nM. Besides, the CC50 at 4 days in series [2] is > 100 nM.
Consider `Cn1nc(NS(C)(=O)=O)c2c(Cl)ccc(-n3c([C@H](Cc4cc(F)cc(F)c4)NC(=O)Cn4nc(C(F)F)c5c4C(F)(F)[C@@H]4C[C@H]54)nc4cc(-n5nccc5C(F)(F)F)ccc4c3=O)c21` (atropisomer, axis not shown; (P)) [Example 32, N—((S)-1-((3P)-3-(4-chloro-1-methyl-3-(methylsulfonamido)-1H-indazol-7-yl)-4-oxo-7-(5-(trifluoromethyl)-1H-pyrazol-1-yl)-3,4-dihydroquinazolin-2-yl)-2-(3,5-difluorophenyl)ethyl)-2-((3bS,4aR)-3-(difluoromethyl)-5,5-difluoro-3b,4,4a,5-tetrahydro-1H-cyclopropa[3,4]cyclopenta[1,2-c]pyrazol-1-yl)acetamide], for which the EC50 in series [1] was 0.079 nM. Moreover, the CC50 at 4 days in series [2] was > 100 nM.
Take `Cn1nc(NS(C)(=O)=O)c2c(Cl)ccc(-n3c([C@H](Cc4cc(F)cc(F)c4)NC(=O)Cn4nc(C(F)F)c5c4C(F)(F)[C@@H]4C[C@H]54)nc4cc(-c5ccc6ncsc6c5)ccc4c3=O)c21` (atropisomer, axis not shown; (P)) [Example 44, N—((S)-1-(7-(benzo[d]thiazol-6-yl)-(3P)-3-(4-chloro-1-methyl-3-(methylsulfonamido)-1H-indazol-7-yl)-4-oxo-3,4-dihydroquinazolin-2-yl)-2-(3,5-difluorophenyl)ethyl)-2-((3bS,4aR)-3-(difluoromethyl)-5,5-difluoro-3b,4,4a,5-tetrahydro-1H-cyclopropa[3,4]cyclopenta[1,2-c]pyrazol-1-yl)acetamide]: the EC50 in series [1] is 0.61 nM. Also, the CC50 at 4 days in series [2] is > 100 nM.
As for `Cn1nc(NS(C)(=O)=O)c2c(Cl)ccc(-n3c([C@H](Cc4cc(F)cc(F)c4)NC(=O)Cn4ccc(C5CC5)n4)nc4cc(-c5ccn(CC(F)(F)C(F)F)n5)ccc4c3=O)c21` (atropisomer, axis not shown; (P)) [Example 63, (S)—N-(1-((3P)-3-(4-chloro-1-methyl-3-(methylsulfonamido)-1H-indazol-7-yl)-4-oxo-7-(1-(2,2,3,3-tetrafluoropropyl)-1H-pyrazol-3-yl)-3,4-dihydroquinazolin-2-yl)-2-(3,5-difluorophenyl)ethyl)-2-(3-cyclopropyl-1H-pyrazol-1-yl)acetamide], the EC50 in series [1] is 0.043 nM. For the same compound, in series [2], the CC50 at 4 days was > 100 nM.
Regarding `Cn1nc(NS(C)(=O)=O)c2c(Cl)ccc(-n3c([C@H](Cc4cc(F)cc(F)c4)NC(=O)Cn4nc(C(F)F)c5c4C(F)(F)[C@@H]4C[C@H]54)nc4cc(-c5ccc6scnc6c5)ccc4c3=O)c21` (atropisomer, axis not shown; (P)) [Example 45, N—((S)-1-(7-(benzo[d]thiazol-5-yl)-(3P)-3-(4-chloro-1-methyl-3-(methylsulfonamido)-1H-indazol-7-yl)-4-oxo-3,4-dihydroquinazolin-2-yl)-2-(3,5-difluorophenyl)ethyl)-2-((3bS,4aR)-3-(difluoromethyl)-5,5-difluoro-3b,4,4a,5-tetrahydro-1H-cyclopropa[3,4]cyclopenta[1,2-c]pyrazol-1-yl)acetamide], the EC50 in series [1] was determined as 0.44 nM. Further, in series [2], the CC50 at 4 days was > 100 nM.
As for `Cn1nc(NS(C)(=O)=O)c2c(Cl)ccc(-n3c([C@H](Cc4cc(F)cc(F)c4)NC(=O)Cn4nc(C(F)F)c5c4C(F)(F)[C@@H]4C[C@H]54)nc4cc(-c5cc(C(C)(F)F)ccn5)ccc4c3=O)c21` (atropisomer, axis not shown; (P)) [Example 37, N—((S)-1-((3P)-3-(4-chloro-1-methyl-3-(methylsulfonamido)-1H-indazol-7-yl)-7-(4-(1,1-difluoroethyl)pyridin-2-yl)-4-oxo-3,4-dihydroquinazolin-2-yl)-2-(3,5-difluorophenyl)ethyl)-2-((3bS,4aR)-3-(difluoromethyl)-5,5-difluoro-3b,4,4a,5-tetrahydro-1H-cyclopropa[3,4]cyclopenta[1,2-c]pyrazol-1-yl)acetamide], the EC50 in series [1] stood at 0.33 nM. For the same compound, the CC50 at 4 days in series [2] was > 100 nM.
As to `Cn1nc(NS(C)(=O)=O)c2c(Cl)ccc(-n3c([C@H](Cc4cc(F)cc(F)c4)NC(=O)Cn4ccc(C5CC5)n4)nc4cc(-c5ccn(CC(C)(F)F)n5)ccc4c3=O)c21` (atropisomer, axis not shown; (P)) [Example 61, (S)—N-(1-((3P)-3-(4-chloro-1-methyl-3-(methylsulfonamido)-1H-indazol-7-yl)-7-(1-(2,2-difluoropropyl)-1H-pyrazol-3-yl)-4-oxo-3,4-dihydroquinazolin-2-yl)-2-(3,5-difluorophenyl)ethyl)-2-(3-cyclopropyl-1H-pyrazol-1-yl)acetamide], in series [1], the EC50 was 0.057 nM. In addition, the CC50 at 4 days in series [2] is > 100 nM.
The corresponding values for `Cc1nc2cc(-c3ccc4c(=O)n(-c5ccc(Cl)c6c(NS(C)(=O)=O)nn(C)c56)c([C@H](Cc5cc(F)cc(F)c5)NC(=O)Cn5nc(C(F)F)c6c5C(F)(F)[C@@H]5C[C@H]65)nc4c3)ccc2s1` (atropisomer, axis not shown; (P)) [Example 36, N—((S)-1-((3P)-3-(4-chloro-1-methyl-3-(methylsulfonamido)-1H-indazol-7-yl)-7-(2-methylbenzo[d]thiazol-5-yl)-4-oxo-3,4-dihydroquinazolin-2-yl)-2-(3,5-difluorophenyl)ethyl)-2-((3bS,4aR)-3-(difluoromethyl)-5,5-difluoro-3b,4,4a,5-tetrahydro-1H-cyclopropa[3,4]cyclopenta[1,2-c]pyrazol-1-yl)acetamide] are 1.8 nM and > 100 nM.
Regarding `Cn1nc(NS(C)(=O)=O)c2c(Cl)ccc(-n3c([C@H](Cc4cc(F)cc(F)c4)NC(=O)Cn4nc(C(F)F)c5c4C(F)(F)[C@@H]4C[C@H]54)nc4cc(-n5cc(C(F)(F)F)cn5)ccc4c3=O)c21` (atropisomer, axis not shown; (P)) [Example 38, N—((S)-1-((3P)-3-(4-chloro-1-methyl-3-(methylsulfonamido)-1H-indazol-7-yl)-4-oxo-7-(4-(trifluoromethyl)-1H-pyrazol-1-yl)-3,4-dihydroquinazolin-2-yl)-2-(3,5-difluorophenyl)ethyl)-2-((3bS,4aR)-3-(difluoromethyl)-5,5-difluoro-3b,4,4a,5-tetrahydro-1H-cyclopropa[3,4]cyclopenta[1,2-c]pyrazol-1-yl)acetamide], the EC50 in series [1] was 0.17 nM. Also, the CC50 at 4 days in series [2] is > 100 nM.

For the origin of these results see patent US20230013823A1, “INHIBITORS OF HUMAN IMMUNODEFICIENCY VIRUS REPLICATION” (VIV HEALTHCARE UK (No. 5) LIMITED, priority 2019, published 2023).
